Test results taken from patent US20040171566A1, “Antisense modulation of p38 mitogen activated protein kinase expression” (priority 1999, published 2004).
In the oligonucleotide strings, read from the 5' end, every base follows the letter of its sugar. An asterisk marks phosphorothioate; unmarked linkages are phosphodiester. Other units and linkages are bracketed, terminal groups are in braces. A string of capitals states the bases alone. e = 2'-O-(2-methoxyethyl) (MOE); [5mC] = 5-methylcytosine; d = 2'-deoxy (DNA)

Assays:
Format in all cases: cell-based
mouse p38β mRNA = assay: Inhibition of mouse p38β mRNA expression in bEND.3 cells, Northern blot
Experimental: (§1) bEND.3, a mouse endothelial cell line (gift of Dr. Werner Risau; see Montesano et al., Cell, 1990, 62, 435, and Stepkowski et al., J. Immunol., 1994, 153, 5336) were grown in high-glucose DMEM (Life Technologies, Gaithersburg, Md.) medium containing 10% fetal bovine serum (FBS) and 1% Penicillin/Streptomycinin. Cells were plated at approximately 2×10^5 cells per 100 mm dish. Within 48 hours of plating, the cells were washed with phosphate-buffered saline (Life Technologies). Then, Opti-MEM7 medium containing 3 μg/mL LIPOFECTIN^7 and an appropriate amount of oligonucleotide were added to the cells. As a control, cells were treated with LIPOFECTIN^7 without oligonucleotide under the same conditions and for the same times as the oligonucleotide-treated samples.
(§2) After 4 hours at 37° C., the medium was replaced with high glucose DMEM medium containing 10% FBS and 1% Penicillin/Streptomycinin. The cells were typically allowed to recover overnight (about 18 to 24 hours) before RNA and/or protein assays were performed as described in Example 2. The p38α, p38β and G3PDH probes used were identical to those described in Example 2.
(§3) Rat p38α antisense oligonucleotides were screened in bEND.3 cells for inhibition of p38α and p38β mRNA expression. The concentration of oligonucleotide used was 100 nM. Oligonucleotides 21844 (SEQ ID NO. 47), 21845 (SEQ ID NO. 48), 21872 (SEQ ID NO. 51), 21873 (SEQ ID NO. 52), 21875 (SEQ ID NO. 54), and 21876 (SEQ ID NO.
(§4) Mouse p38β antisense sequences were screened in bEND.3 cells as described in Example 4.

rat p38α mRNA = assay: Inhibition of rat p38α mRNA expression in A-10 cells, Northern blot; conditions: Rat A-10 cells, 200 nM oligonucleotide, 24 hours
Experimental: Rat p38α antisense oligonucleotides were screened in Rat A-10 cells. A-10 cells (American Type Culture Collection, Manassas, Va.) were grown in high-glucose DMEM (Life Technologies, Gaithersburg, Md.) medium containing 10% fetal calf serum (FCS). Cells were treated with oligonucleotide as described in Example 2. Oligonucleotide concentration was 200 nM. mRNA was isolated 24 hours after time zero and quantitated by Northern blot as described in Example 2.

mouse p38α mRNA [1] = assay: Inhibition of mouse p38α mRNA expression in bEND.3 cells, Northern blot
Experimental: as §1, §2, §3, §4

mouse p38α mRNA [2] = assay: Mouse p38α mRNA levels in bEND.3 cells, quantitative real-time PCR; conditions: mouse bEND.3 cells, at 50 nM
Method in brief: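 Mouse bEND.3 cells, antisense oligonucleotide-treated; p38α mRNA measured by one-step real-time RT-PCR (RT 30 min at 48 °C, then 40 cycles) with a FAM/TAMRA probe. Levels normalized to GAPDH or RiboGreen total RNA, and percent inhibition derived from standard curves of untreated-control mRNA.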

IL-6 secretion = IL-6 secretion by IL-1 stimulated bEND.3 cells, ELISA; conditions: 48 hours after oligonucleotide
Experimental: p38 MAPK antisense oligonucleotides were tested for their ability to reduce IL-6 secretion. bEND.3 cells were cultured and treated as described in Example 4 except that 48 hours after oligonucleotide treatment, cells were stimulated for 6 hours with 1 ng/mL recombinant mouse IL-1 (R&D Systems, Minneapolis, Minn.). IL-6 was measured in the medium using an IL-6 ELISA kit (Endogen Inc., Woburn, Mass.).

[3] = 100 nM rat p38α antisense oligonucleotide
[4] = DOSE 100, 1 ng/mL mouse IL-1 for 6 hours
[5] = mouse p38β antisense oligonucleotides, screened as in Example 4

Row | Substance | % p38β mRNA Inhibition (mouse p38β mRNA; [3]) | % p38α mRNA EXPRESSION (rat p38α mRNA) [%] | % p38α mRNA INHIBITION (mouse p38α mRNA [1]; dose 25 nM) [%] | % p38α mRNA INHIBITION (mouse p38α mRNA [1]; dose 100 nM (dose response)) [%] | % p38β mRNA Inhibition (mouse p38β mRNA; dose 100 nM (dose response)) [%] | also measured
1 | AoGoGoCoTsAsGsAsGsCsCsCsAsGsGsAoGoCoCoA (antisense eAeGeGe[5mC]eT*dA*dG*dA*dG*d[5mC]*d[5mC]*d[5mC]*dA*dG*dG*eAeGe[5mC]e[5mC]eA) [ISIS 21876] | minimal effects | 61 | – | – | – | % p38α mRNA INHIBITION (rat p38α mRNA): 39%
2 | AoGoGoToGsCsTsCsAsGsGsAsCsTsCsCoAoToToT (antisense eAeGeGeTeG*d[5mC]*dT*d[5mC]*dA*dG*dG*dA*d[5mC]*dT*d[5mC]*e[5mC]eAeTeTeT) [ISIS 21873] | – | 19 | 54 | 92 | 25 | reduction of p38α mRNA (mouse p38α mRNA [2]): > 70%; % IL-6 INHIBITION (IL-6 secretion; [4]): 49%; % p38β mRNA Inhibition (mouse p38β mRNA; dose 1 nM): 53%; % p38β mRNA Inhibition (mouse p38β mRNA; dose 5 nM): 31%; % p38β mRNA Inhibition (mouse p38β mRNA; dose 25 nM): 28%
3 | AoToGoGoAsTsGsTsGsGsCsCsGsGsCsGoToGoAoA (antisense eAeTeGeGeA*dT*dG*dT*dG*dG*d[5mC]*d[5mC]*dG*dG*d[5mC]*eGeTeGeAeA) [ISIS 100806] | – | – | – | – | – | % p38α mRNA INHIBITION (mouse p38α mRNA [1]; [5]): 3%; % p38β mRNA Inhibition (mouse p38β mRNA; [5]): 22%
4 | CoAoGoGoCsCsAsCsAsGsAsCsCsAsGsAoToGoToC (antisense e[5mC]eAeGeGe[5mC]*d[5mC]*dA*d[5mC]*dA*dG*dA*d[5mC]*d[5mC]*dA*dG*eAeTeGeTe[5mC]) [ISIS 100812] | – | – | – | – | – | % p38α mRNA INHIBITION (mouse p38α mRNA [1]; [5]): 17%; % p38β mRNA Inhibition (mouse p38β mRNA; [5]): 36%
5 | CoAoToCoAsTsCsAsGsGsGsTsCsGsTsGoGoToAoC (antisense e[5mC]eAeTe[5mC]eA*dT*d[5mC]*dA*dG*dG*dG*dT*d[5mC]*dG*dT*eGeGeTeAe[5mC]) [ISIS 21871] | – | 12 | 34 | 89 | 56 | % p38α mRNA INHIBITION (mouse p38α mRNA [1]; dose 1 nM): 1%; % p38α mRNA INHIBITION (mouse p38α mRNA [1]; dose 5 nM): 23%; % IL-6 INHIBITION (IL-6 secretion; DOSE 200, 1 ng/mL mouse IL-1 for 6 hours): 23%; % p38β mRNA Inhibition (mouse p38β mRNA; dose 5 nM): 4%; % p38β mRNA Inhibition (mouse p38β mRNA; dose 25 nM): 24%
6 | CoToGoCoGsAsCsAsTsTsTsTsCsCsAsGoCoGoGoC (antisense e[5mC]eTeGe[5mC]eG*dA*d[5mC]*dA*dT*dT*dT*dT*d[5mC]*d[5mC]*dA*eGe[5mC]eGeGe[5mC]) [ISIS 21844] | – | 75 | 36 | 80 | 5 | % p38β mRNA Inhibition (mouse p38β mRNA; dose 25 nM): 8%; % p38α mRNA INHIBITION (rat p38α mRNA): 25%
7 | GoAoGoCoAsGsGsCsAsGsAsCsTsGsCsCoAoAoGoG (antisense eGeAeGe[5mC]eA*dG*dG*d[5mC]*dA*dG*dA*d[5mC]*dT*dG*d[5mC]*e[5mC]eAeAeGeG) [ISIS 21875] | minimal effects | 26 | 33 | 72 | 4 | % p38β mRNA Inhibition (mouse p38β mRNA; dose 1 nM): 11%; % p38β mRNA Inhibition (mouse p38β mRNA; dose 5 nM): 16%; % p38β mRNA Inhibition (mouse p38β mRNA; dose 25 nM): 2%
8 | GoAoGoCoCsTsGsTsGsCsCsTsGsGsCsAoCoToGoG (antisense eGeAeGe[5mC]e[5mC]*dT*dG*dT*dG*d[5mC]*d[5mC]*dT*dG*dG*d[5mC]*eAe[5mC]eTeGeG) [ISIS 21877] | 13% | 12 | – | – | – | % p38α mRNA INHIBITION (mouse p38α mRNA [1]; [3]): 55%
9 | GoGoAoToGsGsAsCsAsGsAsAsCsAsGsAoAoGoCoA (antisense eGeGeAeTeG*dG*dA*d[5mC]*dA*dG*dA*dA*d[5mC]*dA*dG*eAeAeGe[5mC]eA) [ISIS 21874] | 21% | 22 | – | – | – | % p38α mRNA INHIBITION (mouse p38α mRNA [1]; [3]): 38%
10 | GoGoCoAoCsAsAsAsGsCsTsAsAsTsGsAoCoToToC (antisense eGeGe[5mC]eAe[5mC]*dA*dA*dA*dG*d[5mC]*dT*dA*dA*dT*dG*eAe[5mC]eTeTe[5mC]) [ISIS 21872] | – | 13 | 35 | 76 | 1 | –
11 | GoGoCoToAsCsCsAsTsGsAsGsTsGsAsGoAoAoGoA (antisense eGeGe[5mC]eTeA*d[5mC]*d[5mC]*dA*dT*dG*dA*dG*dT*dG*dA*eGeAeAeGeA) [ISIS 21879] | – | 11 | – | – | – | –
12 | GoGoToAoAsGsCsTsTsCsTsGsAsCsAsCoToToCoA (antisense eGeGeTeAeA*dG*d[5mC]*dT*dT*d[5mC]*dT*dG*dA*d[5mC]*dA*e[5mC]eTeTe[5mC]eA) [ISIS 21845] | – | 25 | – | – | – | –
13 | ToAoCoCoAsCsCsGsTsGsTsGsGsCsCsAoCoAoToA (antisense eTeAe[5mC]e[5mC]eA*d[5mC]*d[5mC]*dG*dT*dG*dT*dG*dG*d[5mC]*d[5mC]*eAe[5mC]eAeTeA) [ISIS 100810] | – | – | – | – | – | % p38α mRNA INHIBITION (mouse p38α mRNA [1]; [5]): 1%
14 | ToCoToToCsCsAsAsTsGsGsAsGsAsAsAoCoToGoG (antisense eTe[5mC]eTeTe[5mC]*d[5mC]*dA*dA*dT*dG*dG*dA*dG*dA*dA*eAe[5mC]eTeGeG) [ISIS 21881] | – | 31 | – | – | – | –
15 | ToGoCoAoCsCsAsCsAsAsGsCsAsCsCsToGoGoAoG (antisense eTeGe[5mC]eAe[5mC]*d[5mC]*dA*d[5mC]*dA*dA*dG*d[5mC]*dA*d[5mC]*d[5mC]*eTeGeGeAeG) [ISIS 21878] | 10% | 35 | – | – | – | % p38α mRNA INHIBITION (mouse p38α mRNA [1]; [3]): 25%
16 | ToToAoCoAsGsCsCsAsCsCsTsTsCsTsGoGoCoGoC (antisense eTeTeAe[5mC]eA*dG*d[5mC]*d[5mC]*dA*d[5mC]*d[5mC]*dT*dT*d[5mC]*dT*eGeGe[5mC]eGe[5mC]) [ISIS 100804] | – | – | – | – | – | % p38α mRNA INHIBITION (mouse p38α mRNA [1]; [5]): 18%; % IL-6 INHIBITION (IL-6 secretion; [4]): 57%
